PubChem BioAssay AID2060893 (Molecular Pharmacology Branch, DTP, NCI, 2025)

System: K86415-001-R-J1-PDC complex spheroids, viability
Experiment: Anticancer human tumor K86415-001-R-J1-PDC patient-derived lung adenocarcinoma cell line growth inhibition [RAS]
Conditions: for IC50: curve of first compound; for viability, T/C: stronger effect = lower value
Text: RAS pathway inhibitors in Combinations in Complex Spheroids
A high-throughput screen of multi-cell type tumor spheroids was designed to identify active combinations of RAS pathway inhibitors and targeted small molecules. Complex spheroids include a stromal component modeled by human endothelial cells (HUVEC) and fibroblasts modeled by human mesenchymal stem cells (MSCs). The concentration ranges selected for each drug and investigational agent were based upon clinically achievable concentrations if the clinical Cmax of the agent was known.
Compounds. The drugs and investigational agents: abemaciclib (NSC768073), cobimetinib (NSC768068), divarasib (GDC6063, NSC841802), docetaxel (NSC628503), GDC-1971 (RLY-1971, NSC841576), gemcitabine (NSC613327), inavolisib (NSC800729), ipatasertib (NSC767898), KB-0742 (NSC834161), MRTX-1133 (NSC836407), osimertinib (NSC779217), RMC-4630 (NSC839698), RMC-6236 (NSC851965), RMC-6291 (NSC852671), Ro-3306 (NSC812927), sapanisertib (NSC764658), SN-38 (NSC673596), staurosporine (NSC755774), SY5609 (NSC837396), and tovorafenib (DAY101, NSC766906), were obtained from the National Cancer Institute (NCI) Developmental Therapeutics Program Chemical Repository. The FDA-approved anticancer drug set is available from the NCI Developmental Therapeutics Program. […] The stock solutions were prepared in dimethyl sulfoxide (DMSO, Sigma-Aldrich, St. Louis, MO, cat. D2650) at 800-fold the tested concentration and stored at -70 degrees C prior to their use. All drugs and investigational agents were tested over a range starting from a high concentration at or near the clinical Cmax and decreasing in half-log increments. If the clinical Cmax for an agent had not been determined, the highest concentration tested was 10 microM.
Cell Culture. All cells were maintained in an incubator at 37 degrees C and 5% CO2 with 95% humidity. The PDC lines were cultured according to standard operating procedures established by the NCI PDMR. All PDCs were thawed and cultured in Matrigel-coated flasks prepared with a working solution of 1X Ham's F-12 nutrient mix, without supplementation (Invitrogen, Waltham, MA, cat. 11765054), 100 U/mL penicillin-streptomycin (Invitrogen, cat. 15140122), and 2.5% Matrigel (Corning Inc., Corning, NY, cat. 354248) for the first three passages. The 362531-283-R-J2-PDC and 782815-120-R-J1-PDC lines were cultured in 6C/Colon 1B media, which includes advanced DMEM/F-12 (Thermo Fisher Scientific, cat. 12634028), 10 mM HEPES (Thermo Fisher Scientific, cat. 15630080), 1X GlutaMAX supplement (Thermo Fisher Scientific, cat. 35050061), 0.1 mg/mL primocin (InvivoGen, San Diego, CA, cat. ant-pm-2), 10% defined fetal bovine serum, heat inactivated (HyClone Laboratories Inc., Logan, UT, cat. SH30070.03HI), 50% L-WRN conditioned media (ATCC, cat. CRL-3276), 1.25 mM N-Acetyl-L-cysteine (Sigma-Aldrich, cat. A9165), 10 mM nicotinamide (Sigma-Aldrich, cat. N0636), 1X B-27 supplement (Thermo Fisher Scientific, cat. 17504044), 1X N-2 supplement (Thermo Fisher Scientific, cat. 17502048), 50 ng/mL human EGF (Thermo Fisher Scientific, cat. PHG0311), and 10 microM Y-27632 dihydrochloride (Tocris Bioscience, cat. 1254). The K12877-001-R-J1-PDC line was cultured in 6I media, which includes all 6C/Colon 1B media plus 10 ng/mL human FGF-10 (PeproTech, cat. 100-26), 1 ng/mL human FGF-2 (PeproTech, cat. 100-18B), 1 µM prostaglandin E2 (Tocris Bioscience, cat. 2296), […] hydrocortisone (Sigma-Aldrich, cat. H4001), and […] bovine insulin (Sigma-Aldrich, cat. I6634). The K86415-001-R-J1-PDC line was cultured in 6D media, which includes all 6C/Colon 1B media components minus the L-WRN conditioned media. The 485176-168-R4-J1-PDC was cultured in PANC media, which includes all 6C/Colon 1B media plus 100 ng/mL human FGF-10 (PeproTech, cat. 100-26), 500 nM SB-431542 (Selleckchem, cat. S1067), and 10 nM gastrin (Tocris Bioscience, cat. 3006). […]

[1] = second compound 0.0316 µM, first compound 0.00316 µM
[2] = second compound 0.0316 µM, first compound 0.01 µM
[3] = second compound 0.0316 µM, first compound 0.0316 µM
[4] = second compound 0.0316 µM, first compound 0.1 µM
[5] = second compound 0.0316 µM, first compound 0.316 µM
[6] = second compound 0.0316 µM, first compound 1 µM
[7] = second compound 0.1 µM, first compound 0.00316 µM
[8] = second compound 0.1 µM, first compound 0.01 µM
[9] = second compound 0.1 µM, first compound 0.0316 µM
[10] = second compound 0.1 µM, first compound 0.1 µM
[11] = second compound 0.1 µM, first compound 0.316 µM
[12] = second compound 0.1 µM, first compound 1 µM
[13] = second compound 0.316 µM, first compound 0.00316 µM
[14] = second compound 0.316 µM, first compound 0.01 µM
[15] = second compound 0.316 µM, first compound 0.0316 µM
[16] = second compound 0.316 µM, first compound 0.1 µM
[17] = second compound 0.316 µM, first compound 0.316 µM
[18] = second compound 0.316 µM, first compound 1 µM
[19] = second compound 1 µM, first compound 0.00316 µM
[20] = second compound 1 µM, first compound 0.01 µM
[21] = second compound 1 µM, first compound 0.0316 µM
[22] = second compound 1 µM, first compound 0.1 µM
[23] = second compound 1 µM, first compound 0.316 µM
[24] = second compound 1 µM, first compound 1 µM
[25] = second compound 3.16 µM, first compound 0.00316 µM
[26] = second compound 3.16 µM, first compound 0.01 µM
[27] = second compound 3.16 µM, first compound 0.0316 µM
[28] = second compound 3.16 µM, first compound 0.1 µM
[29] = second compound 3.16 µM, first compound 0.316 µM
[30] = second compound 3.16 µM, first compound 1 µM
[31] = second compound 10 µM, first compound 0.00316 µM
[32] = second compound 10 µM, first compound 0.01 µM
[33] = second compound 10 µM, first compound 0.0316 µM
[34] = second compound 10 µM, first compound 0.1 µM
[35] = second compound 10 µM, first compound 0.316 µM
[36] = second compound 10 µM, first compound 1 µM
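Note: spheroids exposed to agents for seven days before readout.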

Structure (SMILES): C=CC(=O)Nc1cc(Nc2nccc(-c3cn(C)c4ccccc34)n2)c(OC)cc1N(C)CCN(C)C + C#Cc1c(F)ccc2cc(O)cc(-c3ncc4c(N5CC6CCC(C5)N6)nc(OCC56CCCN5CC(F)C6)nc4c3F)c12
- IC50 (second compound 0.0316 µM): 493 nM
- IC50 (second compound 0.1 µM): 287 nM
- IC50 (second compound 0.316 µM): 191 nM
- IC50 (second compound 1 µM): 42.3 nM
- IC50 (second compound 3.16 µM): < 3.16 nM
- IC50 (second compound 10 µM): < 3.16 nM
- viability, T/C [1]: 95.1%
- viability, T/C [2]: 99.4%
- viability, T/C [3]: 88.3%
- viability, T/C [4]: 73.1%
- viability, T/C [5]: 58.4%
- viability, T/C [6]: 38.9%
- viability, T/C [7]: 84.5%
- viability, T/C [8]: 99.3%
- viability, T/C [9]: 88.1%
- viability, T/C [10]: 67.7%
- viability, T/C [11]: 50.8%
- viability, T/C [12]: 31.2%
- viability, T/C [13]: 87.8%
- viability, T/C [14]: 92.3%
- viability, T/C [15]: 72.3%
- viability, T/C [16]: 56.1%
- viability, T/C [17]: 46.1%
- viability, T/C [18]: 21.8%
- viability, T/C [19]: 61.1%
- viability, T/C [20]: 59.2%
- viability, T/C [21]: 52.9%
- viability, T/C [22]: 40.8%
- viability, T/C [23]: 24.2%
- viability, T/C [24]: 14.4%
- viability, T/C [25]: 32.3%
- viability, T/C [26]: 33.8%
- viability, T/C [27]: 27.2%
- viability, T/C [28]: 20.4%
- viability, T/C [29]: 13.6%
- viability, T/C [30]: 9.53%
- viability, T/C [31]: 30.3%
- viability, T/C [32]: 16.9%
- viability, T/C [33]: 13.9%
- viability, T/C [34]: 10.1%
- viability, T/C [35]: 10.4%
- viability, T/C [36]: 7%

Structure (SMILES): CC(Nc1ccc2c(c1)OCCn1cc(N3C(=O)OCC3C(F)F)nc1-2)C(N)=O (stereo unspecified) + C#Cc1c(F)ccc2cc(O)cc(-c3ncc4c(N5CC6CCC(C5)N6)nc(OCC56CCCN5CC(F)C6)nc4c3F)c12
- IC50 (second compound 0.0316 µM): 1170 nM
- IC50 (second compound 0.1 µM): 1620 nM
- IC50 (second compound 0.316 µM): 1190 nM
- IC50 (second compound 1 µM): 472 nM
- IC50 (second compound 3.16 µM): < 31.6 nM
- IC50 (second compound 10 µM): < 31.6 nM
- viability, T/C [3]: 84.4%
- viability, T/C [4]: 93.5%
- viability, T/C [5]: 63.5%
- viability, T/C [6]: 50.1%
- viability, T/C (second compound 0.0316 µM, first compound 3.16 µM): 47.6%
- viability, T/C (second compound 0.0316 µM, first compound 10 µM): 29.1%
- viability, T/C [9]: 90.3%
- viability, T/C [10]: 86.2%
- viability, T/C [11]: 69.5%
- viability, T/C [12]: 56%
- viability, T/C (second compound 0.1 µM, first compound 3.16 µM): 42.5%
- viability, T/C (second compound 0.1 µM, first compound 10 µM): 28.2%
- viability, T/C [15]: 84.9%
- viability, T/C [16]: 86.7%
- viability, T/C [17]: 65.3%
- viability, T/C [18]: 53.2%
- viability, T/C (second compound 0.316 µM, first compound 3.16 µM): 38.5%
- viability, T/C (second compound 0.316 µM, first compound 10 µM): 28.4%
- viability, T/C [21]: 71.6%
- viability, T/C [22]: 62%
- viability, T/C [23]: 50.9%
- viability, T/C [24]: 46.1%
- viability, T/C (second compound 1 µM, first compound 3.16 µM): 34.3%
- viability, T/C (second compound 1 µM, first compound 10 µM): 23.2%
- viability, T/C [27]: 33.2%
- viability, T/C [28]: 26.4%
- viability, T/C [29]: 26.5%
- viability, T/C [30]: 26.9%
- viability, T/C (second compound 3.16 µM, first compound 3.16 µM): 22.4%
- viability, T/C (second compound 3.16 µM, first compound 10 µM): 12.8%
- viability, T/C [33]: 16.3%
- viability, T/C [34]: 15.2%
- viability, T/C [35]: 11.7%
- viability, T/C [36]: 6.87%
- viability, T/C (second compound 10 µM, first compound 3.16 µM): 3.76%
- viability, T/C (second compound 10 µM, first compound 10 µM): 1.56%

Structure (SMILES): O=C(c1ccc(F)c(F)c1Nc1ccc(I)cc1F)N1CC(O)([C@@H]2CCCCN2)C1 + C#Cc1c(F)ccc2cc(O)cc(-c3ncc4c(N5CC6CCC(C5)N6)nc(OCC56CCCN5CC(F)C6)nc4c3F)c12
- IC50 (second compound 0.0316 µM): 64.2 nM
- IC50 (second compound 0.1 µM): 56 nM
- IC50 (second compound 0.316 µM): 38.2 nM
- IC50 (second compound 1 µM): 12.5 nM
- IC50 (second compound 3.16 µM): < 3.16 nM
- IC50 (second compound 10 µM): < 3.16 nM
- viability, T/C [1]: 89%
- viability, T/C [2]: 83.5%
- viability, T/C [3]: 67.7%
- viability, T/C [4]: 38%
- viability, T/C [5]: 19.8%
- viability, T/C [6]: 8.49%
- viability, T/C [7]: 88.1%
- viability, T/C [8]: 79.9%
- viability, T/C [9]: 61.3%
- viability, T/C [10]: 37%
- viability, T/C [11]: 22.2%
- viability, T/C [12]: 8.46%
- viability, T/C [13]: 74.5%
- viability, T/C [14]: 74.5%
- viability, T/C [15]: 52.2%
- viability, T/C [16]: 29.2%
- viability, T/C [17]: 17.2%
- viability, T/C [18]: 8.24%
- viability, T/C [19]: 61.2%
- viability, T/C [20]: 54.9%
- viability, T/C [21]: 35.9%
- viability, T/C [22]: 22%
- viability, T/C [23]: 12.4%
- viability, T/C [24]: 5.88%
- viability, T/C [25]: 28.6%
- viability, T/C [26]: 32%
- viability, T/C [27]: 20.6%
- viability, T/C [28]: 13.8%
- viability, T/C [29]: 8.69%
- viability, T/C [30]: 3.9%
- viability, T/C [31]: 14.4%
- viability, T/C [32]: 13.1%
- viability, T/C [33]: 9.68%
- viability, T/C [34]: 7.57%
- viability, T/C [35]: 4.87%
- viability, T/C [36]: 3%
